Where no end group is shown, it is not given here.

The record followed here is US8202696B2, “Means for use in treating diseases correlated with or caused by non-physiological levels of microtubule-associated PP2Ac” (Max-Planck-Gessellschaft zur Forderung der Wissenschaften …, priority 2002, dated 2012).

Test [1] concerns Gli3. Description: Localization of overexpressed GFP-tagged Gli3 in HeLa cells. The test is classed as cell-based. The note with it: GFP-tagged Gli3-overexpressing HeLa cells. Here is the method:
1×10^5 HELA cells per well of a 6-well plate were transfected with Qiagen Polyfect transfection reagent according to the manufacturer's instructions. The ratio of the amount of DNA to the amount of polyfect transfection reagent was 3 μg DNA/10 μl Polyfect. Constructs used for expression in HELA were the following: GFP-GLI3 (aa 18-1549), GLI3-GFP (aa 1-1522), MYC-GLI3 (aa 18-1596), FLAG-GLI3 (aa18-1596), MYC-B-BOX1 (aa 110-167 of the MID1 protein), ALPHA4-V5 (aa 1-339). 24 h after transfection immunofluorescence was performed. GFP-constructs were treated as described in Schweiger et al., 1999. Immunofluorescence with MYC-tagged and FLAG-tagged constructs was done according to Trockenbacher et al., 2001. FLAG-tagged constructs were detected with anti-FLAG-antibody diluted 1:500, the secondary antibody FITC-antimouse was diluted 1:1000. For MYC-tagged constructs anti-MYC-antibody 1:300 and CY3-antirabbit 1:1000 were used. […]
Overexpressed Gli3 is predominantly localized in the nucleus (FIG. 10, top left).

Test [2] deals with tau protein. Description: Tau-1 and pan-Tau immunofluorescence in transfected postnatal sympathetic neurons. The test is classed as cell-based, rat. The note with it: compared to non-transfected neurons = 100%, two days after transfection. Here is the method:
Peripheral sympathetic neurons were obtained from postnatal day 1-3 rats. […] Following mechanical dissociation the cell suspension was filtered through a 40 μm nylon mesh and seeded at 6 SCGs per well into uncoated Falcon dishes for preplating purposes. After 4 hours neurons were transferred into glass floor dishes (Willco Wells B.V., gwst 3522, 3.8 cm^2 area/dish) coated with poly-D-lysine/laminin. Neurons were maintained in RPMI medium containing antibiotics, N2 additive (Invitrogen) and 100 ng/ml nerve growth factor (NGF; Sigma) at 37° C. in a humidified atmosphere with 5% CO2.
Neurons were transfected 2 hours after seeding applying the biolistic approach. This method uses a hand held gun to bombard dissociated neurons at high velocity with micron-size gold particles loaded with DNA. The coating of gold particles with DNA was achieved using a modification of the manufacturer's instructions (Bio-Rad Laboratories). For preparation of 35 cartridges 25 mg gold particles (1.6 μm diameter) were suspended in 50 μl of 0.05 M spermidine. After vortexing and sonication for 5 seconds, 50 μg plasmid DNA dissolved in 50 μl TE buffer was added (for co-transfection experiments, 80 μg were used, i.e., 40 μg Plasmid I+40 μg Plasmid 2). The amount of gold particles and DNA corresponds to a microcarrier loading quantity (MLQ) of about 0.7 (mg/cartridge) and to a DNA loading ratio (DLR) of 2 (μg/mg) for single transfection experiments. DNA, spermidine and gold were then mixed for 5 sec in a variable speed vortexer. At low vortexing speed, 50 μl 1 M CaCl2 was added dropwise to the mixture for association of DNA with the gold particles followed by precipitation for 10 min at room temperature. The supernatant was removed and the pellet rinsed with 800 μl of 100% ethanol. Washing was repeated two times with centrifugation steps at 3000 g between each wash. […]
A fully motorized Zeiss Axiovert 100M microscope equipped for inverted fluorescence was used for visualization of fluorescent neurons. […]

The subject of test [3] is Gli3. Kind of test: Localization of GFP-GLI3 in cultured U373MG cells. The settings on record: 24 hours after transfection, 100 cells counted. Format: cell-based. The method, then:
COS7-HELA- and U373MG-cells were transfected using PolyFect Transfection Reagent (Qiagen, cat. no. 301107) according to the manufacturer's instructions. Gli3 cDNA was cloned into pEGFP-C1 and pEGFP-N3 vectors (Clontech) respectively. 100 transfected cells per experiment (Gli3-GFP, GFP-Gli3, Gli3-GFP+myc-MID1, GFP-Gli3+myc-MID1, Gli3-GFP+myc-BBox1, GFP-Gli3+myc-BBox1) were counted and analysed for Gli3 localization. Experiments were repeated twice. […] PCMV-Tag3 vector from Stratagene was used for myc-MID1 and myc-BBox1 overexpression.

In the case of “B-Box1: peptide derived from the MID1 domain that is responsible for α4 binding (amino acids 108-165), expressed from plasmid (ANTMTSAEKVLCQFCDQDPAQDAVKTCVTCEVSYCDECLKATHPNKKPFTGHRLIEPI; cysteine pairing not given here; also: myc tag; UniProt O15344 108-165, looked up, fragment)”, in test [1], the Gli3 localization result is given as “significant retention of the active form of Gli3 in the cytosol”. For the same substance, the “Tau-1 immunoreactivity (dephosphorylated tau)” value in test [2] (listed as B-BOX1) is given as “significantly increased”; in test [2] (listed as Bbox1), “pronounced increase in fluorescence”. Moreover, the GFP-GLI3 localization entry is “significant change of GFP-GLI3 from nucleus to cytosol” in test [3] (listed as B-BOX1), “significant change from the nucleus to the cytosol” in test [3] (listed as BBox1) and “significant Bbox1-dependent change of Gli3 localization” in test [3] (listed as Bbox1).
